Laboratory results: ChEMBL document CHEMBL1150950, “Antimicrobial activity of 8-alkyl- and 8-phenyl-substituted berberines and their 12-bromo derivatives” (1998)

Experiments:
Salmonella enteritidis = experiment: Antibacterial activity against Salmonella enteritidis after 24 hrs by serial broth dilution test; type: functional, Salmonella enterica subsp. enterica serovar Enteritidis; conditions: Salmonella enterica
Escherichia coli = experiment: Antibacterial activity against Escherichia coli IFO 026 after 24 hrs by serial broth dilution test; type: functional; conditions: IFO 026, 24 h
Candida albicans = experiment: Antifungal activity against Candida albicans IFO 1061 after 48 hrs by serial broth dilution test; type: functional; conditions: IFO 1061, 48 h
Bacillus subtilis = experiment: Antibacterial activity against Bacillus subtilis after 24 hrs by serial broth dilution test; type: functional
Staphylococcus aureus = experiment: Antibacterial activity against Staphylococcus aureus after 24 hrs by serial broth dilution test; type: functional

Row | MIC (Salmonella enteritidis) [µg/mL] | MIC (Escherichia coli) [µg/mL] | MIC (Candida albicans) [µg/mL] | MIC (Bacillus subtilis) [µg/mL] | MIC (Staphylococcus aureus) [µg/mL] | SMILES
1 | 125 | > 500 | 500 | 125 | 125 | COc1cc(Br)c2cc3[n+](cc2c1OC)CCc1cc2c(cc1-3)OCO2.[Cl-]
2 | 500 | > 2000 | 500 | 1000 | 250 | COc1ccc2cc3[n+](cc2c1OC)CCc1cc2c(cc1-3)OCO2.[Cl-] [BERBERINE CHLORIDE]
3 | 15.6 | 250 | 62.5 | 7.8 | 7.8 | CCCCc1c2c(OC)c(OC)cc(Br)c2cc2[n+]1CCc1cc3c(cc1-2)OCO3.[Cl-]
4 | 31.2 | 500 | 250 | 31.2 | 15.6 | CCCCc1c2c(OC)c(OC)ccc2cc2[n+]1CCc1cc3c(cc1-2)OCO3.[Cl-]
5 | 3.9 | 125 | 15.6 | 3.9 | 3.9 | CCCCCCc1c2c(OC)c(OC)cc(Br)c2cc2[n+]1CCc1cc3c(cc1-2)OCO3.[Cl-]
6 | 31.2 | 500 | 250 | 62.5 | 31.2 | CCCc1c2c(OC)c(OC)ccc2cc2[n+]1CCc1cc3c(cc1-2)OCO3.[Cl-]
7 | 31.2 | 500 | 250 | 31.2 | 31.2 | CCc1c2c(OC)c(OC)cc(Br)c2cc2[n+]1CCc1cc3c(cc1-2)OCO3.[Cl-]
8 | 62.5 | > 500 | 125 | 125 | 62.5 | CCc1c2c(OC)c(OC)ccc2cc2[n+]1CCc1cc3c(cc1-2)OCO3.[Cl-]
9 | 125 | > 500 | 250 | 250 | 125 | COc1ccc2cc3[n+](c(C)c2c1OC)CCc1cc2c(cc1-3)OCO2.[Cl-]
10 | 125 | > 500 | 250 | 62.5 | 62.5 | COc1ccc2cc3[n+](c(-c4ccccc4)c2c1OC)CCc1cc2c(cc1-3)OCO2.[Cl-]
11 | 62.5 | 31.2 | > 2000 | 3.9 | 31.2 | NC[C@H]1O[C@H](O[C@H]2[C@H](O)[C@@H](O[C@H]3O[C@H](CO)[C@@H](O)[C@H](N)[C@H]3O)[C@H](N)C[C@@H]2N)[C@H](O)[C@@H](O)[C@@H]1O.O=S(=O)(O)O [KANAMYCIN SULFATE]
12 | 31.2 | 500 | 250 | 31.2 | 31.2 | COc1cc(Br)c2cc3[n+](c(-c4ccccc4)c2c1OC)CCc1cc2c(cc1-3)OCO2.[Cl-]
13 | 15.6 | 500 | 125 | 15.6 | 15.6 | CCCc1c2c(OC)c(OC)cc(Br)c2cc2[n+]1CCc1cc3c(cc1-2)OCO3.[Cl-]
